# Patent US11230526B1, “Cylcoalkenyl derivatives useful as agonists of the GPR120 and/or GPR40 receptors” (Janssen Pharmaceutica NV, priority 2018, dated 2022)
# pEC50: −log10 of the molar value.
# Key:
# Format in all cases: cell-based
# Human GPR120 short form = biological target: T1, Human GPR120 short form (Homo sapiens, UniProt Q5NUL3); assay: Human GPR120 calcium flux assay, Procedure Calcium B (4200 cells/well)
# T1 construct: expressed in transfected cells
# T1 sequence (Q5NUL3 1-361): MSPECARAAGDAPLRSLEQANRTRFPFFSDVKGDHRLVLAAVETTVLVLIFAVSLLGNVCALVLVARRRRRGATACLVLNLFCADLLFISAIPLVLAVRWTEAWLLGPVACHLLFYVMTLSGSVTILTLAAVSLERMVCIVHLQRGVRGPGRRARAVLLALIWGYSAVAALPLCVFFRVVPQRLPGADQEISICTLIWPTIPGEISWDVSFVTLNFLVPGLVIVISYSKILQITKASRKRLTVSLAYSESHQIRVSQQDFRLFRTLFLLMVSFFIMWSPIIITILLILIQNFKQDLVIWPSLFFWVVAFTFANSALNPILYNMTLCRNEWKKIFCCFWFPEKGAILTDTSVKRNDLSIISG
# How it was run: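 HEK293 cells stably expressing human GPR120 (NM_001195755.1), 4200 cells/well, starved 1 h and loaded with Fluo-4 NW plus probenecid. Ligand-evoked calcium flux read on FLIPR for 300 s after a 10 s baseline. RFU = Fmax−Fmin; EC50 from four-parameter concentration-response fit.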
# [1] = biological target: T2, long form of human GPR120 (Homo sapiens, UniProt Q5NUL3); assay: Human GPR120 DiscoveRx PathHunter Beta-Arrestin assay, Procedure β-arrestin A
# T2 construct: host or cells: PathHunter CHO-K1 GPR120 β-Arrestin Cell Line
# T2 sequence (Q5NUL3 1-377 isoform Q5NUL3-1): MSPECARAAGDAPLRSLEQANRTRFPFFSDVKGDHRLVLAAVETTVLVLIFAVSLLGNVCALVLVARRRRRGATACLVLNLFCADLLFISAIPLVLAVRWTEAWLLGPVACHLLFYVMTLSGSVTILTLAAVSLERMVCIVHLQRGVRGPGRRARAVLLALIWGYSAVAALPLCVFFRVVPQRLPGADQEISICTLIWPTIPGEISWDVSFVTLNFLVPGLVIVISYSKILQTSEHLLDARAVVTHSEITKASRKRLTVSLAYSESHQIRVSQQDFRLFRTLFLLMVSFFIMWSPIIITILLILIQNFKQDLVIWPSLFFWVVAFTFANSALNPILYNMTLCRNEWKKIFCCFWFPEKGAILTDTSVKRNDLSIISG
# T2 sequence (P32121 whole entry partner): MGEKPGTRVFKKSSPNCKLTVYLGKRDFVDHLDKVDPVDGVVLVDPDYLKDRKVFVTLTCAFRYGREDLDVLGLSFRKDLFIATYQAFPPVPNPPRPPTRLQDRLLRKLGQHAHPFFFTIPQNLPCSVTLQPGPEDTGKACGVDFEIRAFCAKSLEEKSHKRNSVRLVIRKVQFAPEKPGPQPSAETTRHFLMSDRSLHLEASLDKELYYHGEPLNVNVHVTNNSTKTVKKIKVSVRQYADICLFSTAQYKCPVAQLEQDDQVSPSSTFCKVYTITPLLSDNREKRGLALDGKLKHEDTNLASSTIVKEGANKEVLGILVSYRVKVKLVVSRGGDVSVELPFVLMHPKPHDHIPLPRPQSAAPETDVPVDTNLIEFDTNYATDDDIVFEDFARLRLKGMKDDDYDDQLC
# From the text: Human GPR120 DiscoveRx PathHunter® Beta-Arrestin Assay Assay Principle:
# The binding of an agonist (medium/long chain fatty acids or small molecule agonists) to the G-protein-coupled receptor GPR120 activates phospholipase C, leading to release of intracellular Ca^+2 through the generation of inositol 1,4,5-trisphosphate (InsP3 or IP3). GPR120 activation can also trigger intracellular signaling via recruitment of Beta-Arrestin. In the present method, agonist-induced activation of the human GPR120 receptor is monitored through the use of PathHunter® CHO-K1 GPR120 Beta-Arrestin Cell Line engineered by DiscoveRx, as detailed below. The cell lines are designed to co-express both the ProLink/Enzyme Donor (PK)-tagged GPCR and the Enzyme […] (EA)-tagged Beta-Arrestin fusion proteins. Upon GPR120 receptor stimulation/activation, the EA-tagged Beta-Arrestin portion is translocated to the tagged receptor, where the two enzyme fragments are brought within close proximity. Under these conditions, these fragments can interact and form an active Beta-gal enzyme complex through Enzyme Fragment Complementation (EFC). This active Beta-gal complex can enzymatically hydrolyse the substrate to produce a detectable light signal; therefore, activation as a function of agonist concentration can be expressed as an EC50 value to determine relative compound activities. This in vitro assay therefore serves to assess compound agonist activity of the GPR120.
# In Procedure β-arrestin A, the cell used were PathHunter® CHO-K1 GPR120 β-Arrestin Cell Line, expressing the long form of human GPR120 (Genbank accession number NM_181745), with 3000 cells per well.
# The selected CHO-K1 GPR120 β-Arrestin cells were cultured in Ham's F12 media supplemented with 10% fetal bovine serum (FBS), 1% Glutamine, 1×p/s, 800 μg/mL G418 and 300 μg/mL Hygromycin B (for selection). Cell stocks were maintained and grown in a sub-confluent state using standard cell culture procedures. The day before the experiment, the cells were harvested with non-enzymatic cell dissociation buffer and re-suspended in complete growth media at the desired concentration. A Corning 384-plate was then seeded with the proper number of cells in a volume of 25 μL, per well. The seeded plates were incubated overnight at 37° C.
# On the day of the experiment, the Assay Buffer containing (a) HBSS with Ca^++ and Mg^++, (b) 20 mM HEPES, and (c) 0.1% BSA stabilizer (pH 7.4) was prepared. The growth medium was gently removed from the cell plates and 20 μL of Assay Buffer added to each well. The plate was then incubated at 37° C. for 60 min. Test compounds were serially diluted in Assay Buffer to desired concentrations (more particularly to one or more of the following μM concentrations: 25, 12.5, 6.25, 3.12, 1.56, 0.78, 0.39, 0.19, 0.10, 0.05, 0.02, 0.01). Five μL of compound dilution was then added to each well and the plate incubated at 37° C. for 90 min. The detection reagents were prepared according to the manufacture's instruction. Twelve μL of the detection reagents were added to each well and the plate incubated at room temperature for 60 min.
# The plates were read on an EnVision instrument, using Protocol name: Luminescence, Plate type: 384 Costar, Measurement height: 3 mm, Measurement time: 1 s, Aperture: 384 Plate aperture. The % Activity relative to the positive control was calculated using the following equation:
# The % Activity values were plotted versus the concentration of test compound and fitted to a sigmoidal dose-response curve with a Hill slope=1 (fixed value) using nonlinear regression with GraphPad Prism 5.0 to calculate the EC50 values. The Fitting Equation was: Y=Bottom+(Top-Bottom)/(1+10^((Log EC50−X)*HillSlope)), where X is the log of the concentration and Y is the response.
# human GPR40 = biological target: T3, human GPR40 (Homo sapiens, UniProt O14842); assay: GPR40 calcium flux assay, human GPR40; details: HEK293 cells stably expressing GPR40; table does not say human or rat
# T3 construct: expressed in transfected cells
# T3 sequence (O14842 whole entry): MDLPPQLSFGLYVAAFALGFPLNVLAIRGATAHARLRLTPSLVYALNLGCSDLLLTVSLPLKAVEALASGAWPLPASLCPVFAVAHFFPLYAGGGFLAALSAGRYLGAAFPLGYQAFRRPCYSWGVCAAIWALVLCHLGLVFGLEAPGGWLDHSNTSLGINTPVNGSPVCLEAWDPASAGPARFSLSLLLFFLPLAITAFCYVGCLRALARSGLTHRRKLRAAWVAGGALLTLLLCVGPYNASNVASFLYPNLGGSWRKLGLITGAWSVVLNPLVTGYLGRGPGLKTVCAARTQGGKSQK
# How it was run: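 Cells preincubated 1 h at 37° C. in HBSS, 20 mM HEPES, 0.1% BSA, then Fluo 8 calcium dye 30 min at 37° C. and 15 min at room temperature.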
Compound,pEC50 (Human GPR120 short form),pEC50 [1],pEC50 (human GPR40)
O=C(O)CCc1ccc(OCC2=C(c3ccc(F)cc3)CCC2)c(F)c1 [Compound 49],6.87,6.91,< 5.30
Cc1cc(OCC2=C(c3ccc(Cl)cc3)CCC2)c(Br)cc1CCC(=O)O [Compound 67],7.14,6.78,< 5.30
Cc1c(CCC(=O)O)cc(Br)c(OCC2=C(c3ccc(Cl)cc3)CCC2)c1Br [Compound 68],6.29,5.71,< 5.30
"O=C(O)CCc1ccc(OCC2=C(c3ccc(Cl)cc3)CCC2)cc1OC(F)(F)F [Compound 96, 3-[4-[[2-(4-chlorophenyl)cyclopenten-1-yl]methoxy]-2-(trifluoromethoxy)phenyl]Propanoic Acid]",6.06,6.01,5.75
"COc1cc(OCC2=C(c3ccc(Cl)cc3)CCC2)ccc1CCC(=O)O [Compound 97, 3-[4-[[2-(4-chlorophenyl)cyclopenten-1-yl]methoxy]-2-methoxy-phenyl]Propanoic Acid]",6.63,6.12,6.08
"O=C(O)CCc1ccc(OCC2=C(c3ccc(Cl)cc3)CCC2)c(Cl)c1Cl [Compound 99, 3-[2,3-dichloro-4-[[2-(4-chlorophenyl)cyclopenten-1-yl]methoxy]phenyl]Propanoic Acid]",7.36,6.83,< 5.30
Cc1c(CCC(=O)O)ccc(OCC2=C(c3ccc(F)cc3)CC(F)C2)c1C (stereo not drawn) [Compound 100],7.09,6.77,< 5.30
"Cc1cc(CC(C)C(=O)O)ccc1OCC1=C(c2ccc(F)cc2)CCC1 (stereo not drawn) [Compound 160, 3-[4-[[2-(4-fluorophenyl)cyclopenten-1-yl]methoxy]-3-methyl-phenyl]-2-methyl-Propanoic Acid]",6.67,6.28,< 5.30
"Cc1cc(CCC(=O)O)ccc1OCC1=C(c2ccc(Cl)cc2)CC(F)(F)C1 [Compound 166, 3-[4-[[2-(4-chlorophenyl)-4,4-difluoro-cyclopenten-1-yl]methoxy]-3-methyl-phenyl]Propanoic Acid]",7.62,7.54,5.40
"CC(C)c1cc(OCC2=C(c3ccc(Cl)cc3)CCC2)ccc1CCC(=O)O [Compound 167, 3-[4-[[2-(4-chlorophenyl)cyclopenten-1-yl]methoxy]-2-isopropyl-phenyl]Propanoic Acid]",6.30,6.14,5.90
"Cc1ccc(C2=C(COc3ccc(CCC(=O)O)c(C)c3C)CC(F)(F)C2)cc1F [Compound 172, 3-[4-[[4,4-difluoro-2-(3-fluoro-4-methyl-phenyl)cyclopenten-1-yl]methoxy]-2,3-dimethyl-phenyl]Propanoic Acid]",7.38,7.49,< 5.30
"Cc1c(CCC(=O)O)ccc(OCC2=C(c3ccc(F)cc3F)CC(F)(F)C2)c1C [Compound 173, 3-[4-[[2-(2,4-difluorophenyl)-4,4-difluoro-cyclopenten-1-yl]methoxy]-2,3-dimethyl-phenyl]Propanoic Acid]",7.31,7.40,< 5.30
"Cc1cc(CCC(=O)O)ccc1OCC1=C(c2ccc(F)c(F)c2)CC(F)(F)C1 [Compound 179, 3-[4-[[2-(3,4-difluorophenyl)-4,4-difluoro-cyclopenten-1-yl]methoxy]-3-methyl-phenyl]Propanoic Acid]",7.51,6.54,< 5.30
"Cc1cc(CCC(=O)O)ccc1OCC1=C(c2ccc(F)cc2)CC(F)(F)C1 [Compound 180, 3-[4-[[4,4-difluoro-2-(4-fluorophenyl)cyclopenten-1-yl]methoxy]-3-methyl-phenyl]Propanoic Acid]",7.59,7.11,< 5.30
"Cc1cc(CCC(=O)O)ccc1OCC1=C(c2ccc(F)cc2F)CC(F)(F)C1 [Compound 182, 3-[4-[[2-(2,4-difluorophenyl)-4,4-difluoro-cyclopenten-1-yl]methoxy]-3-methyl-phenyl]Propanoic Acid]",7.49,6.98,< 5.30
"O=C(O)CCc1cc(F)c(OCC2=C(c3ccc(F)cc3)CC(F)(F)C2)c(F)c1 [Compound 183, 3-[4-[[4,4-difluoro-2-(4-fluorophenyl)cyclopenten-1-yl]methoxy]-3,5-difluoro-phenyl]Propanoic Acid]",7.29,6.73,< 5.30
"O=C(O)CCc1cc(F)c(OCC2=C(c3ccc(F)c(F)c3)CC(F)(F)C2)c(F)c1 [Compound 184, 3-[4-[[2-(3,4-difluorophenyl)-4,4-difluoro-cyclopenten-1-yl]methoxy]-3,5-difluoro-phenyl]Propanoic Acid]",7.04,6.37,< 5.30
"N#CC1CC(COc2c(F)cc(CCC(=O)O)cc2F)=C(c2ccc(Cl)cc2)C1 (stereo not drawn) [Compound 185, 3-[4-[[2-(4-chlorophenyl)-4-cyano-cyclopenten-1-yl]methoxy]-3,5-difluoro-phenyl]Propanoic Acid]",6.44,5.84,5.46
"O=C(O)CCc1ccc(OCC2=C(c3ccc(F)cc3)CC(F)C2)cc1C(F)(F)F (stereo not drawn) [Compound 186, 3-[4-[[4-fluoro-2-(4-fluorophenyl)cyclopenten-1-yl]methoxy]-2-(trifluoromethyl)phenyl]Propanoic Acid]",6.34,5.75,6.42
"COC1CC(COc2c(F)cc(CCC(=O)O)cc2F)=C(c2ccc(Cl)cc2)C1 (stereo not drawn) [Compound 187, 3-[4-[[2-(4-chlorophenyl)-4-methoxy-cyclopenten-1-yl]methoxy]-3,5-difluoro-phenyl]Propanoic Acid]",6.86,6.22,5.48
"O=C(O)CCc1ccc(OCC2=C(c3ccc(F)cc3)CC(F)(F)C2)cc1C(F)(F)F [Compound 188, 3-[4-[[4,4-difluoro-2-(4-fluorophenyl)cyclopenten-1-yl]methoxy]-2-(trifluoromethyl)phenyl]Propanoic Acid]",6.39,6.26,6.85
"Cc1cc(CCC(=O)O)ccc1OCC1=C(c2cccc(F)c2)CC(F)(F)C1 [Compound 191, 3-[4-[[4,4-difluoro-2-(3-fluorophenyl)cyclopenten-1-yl]methoxy]-3-methyl-phenyl]Propanoic Acid]",7.57,6.59,< 5.30
